Laboratory results reported in patent US10266545B2, “Coumarin derivative as antiviral agent, pharmaceutical composition thereof, its preparation and use” (I-NOVA MEDICINSKA ISTRAZIVANJA D.O.O., priority 2016, dated 2019).

System: HIV-1
Experiment: Viral load by FDA approved Real-Time PCR test (Abbott m2000) in HIV-1 infected MT-4 cells
Assay type: cell-based, HIV-1 subtype B
Details: acute infected MT-4 cells with HIV-1, treated at MNC 0.01 mM
Procedure: The preparation of the MT-4 cell line and HIV-1 culture was the same as in previously described studies. Monitoring of the amount of virions during anti-viral analysis by measuring of the viral load with FDA approved test was performed as follows: The study was conducted with Real-Time polymerase chain reaction (PCR) test for in vitro quantitative assay of HIV-I with automated system Abbott Molecular's m2000, approved by the United States (US) Food and Drug Administration (FDA), and with the CE mark. Extraction of viral nucleic acid was carried out with an automatic extractor with magnetic particles—Abbott Molecular's m2000sp and Real-Time amplification; detection was performed with m2000rt. The sensitivity and range of the test was 40 (1.6 log copies/ml) to 10,000,000 (7.0 log copies/ml) copies/ml by the extraction of 1 ml of sample. The target region of the viral genome was a fragment of the integrase gene pol. The test was designed to detect HIV-1 subtypes A-H, group […] and N. In every test sample, an internal control was placed.
The study included three controls: negative, low positive, and high positive with the following result: • (i) negative control—result negative (not detected); • (ii) low positive control—result 938 copies/ml (2.97 log) control levels; and • (iii) high positive control—result 92,927 copies/ml (4.97 log) control levels. […]

SMILES | Viral load (log)
O=c1oc2cc(O)c(O)cc2c(O)c1-c1coc2c1c(=O)oc1cc(O)c(O)cc12 [Compound 2, 7,8-dihydroxy-3-(4,6,7-trihydroxy-2-oxo-2H-chromen-3-yl)-4H-furo[3,2-c]chromen-4-one, reference compound] | (3.09 log)
O=c1oc2cc(O)cc(O)c2c(O)c1-c1coc2c1c(=O)oc1cc(O)cc(O)c12 [Compound 1, 7,9-dihydroxy-3-(4,5,7-trihydroxy-2-oxo-2H-chromene-3-yl)-4H-furo[3,2-c]chromen-4-one] | (3.01 log)
